Test results from patent publication US9562044B2, “2-acylaminothiazole derivative or salt thereof” (ASTELLAS PHARMA INC., priority 2013, dated 2017).
Structures can show the parent of a compound that is named as a salt.

Target: T1, human c-Mpl receptor (Homo sapiens, UniProt P40238)
T1 construct: expressed in transfected cells
T1 sequence (P40238 26-635): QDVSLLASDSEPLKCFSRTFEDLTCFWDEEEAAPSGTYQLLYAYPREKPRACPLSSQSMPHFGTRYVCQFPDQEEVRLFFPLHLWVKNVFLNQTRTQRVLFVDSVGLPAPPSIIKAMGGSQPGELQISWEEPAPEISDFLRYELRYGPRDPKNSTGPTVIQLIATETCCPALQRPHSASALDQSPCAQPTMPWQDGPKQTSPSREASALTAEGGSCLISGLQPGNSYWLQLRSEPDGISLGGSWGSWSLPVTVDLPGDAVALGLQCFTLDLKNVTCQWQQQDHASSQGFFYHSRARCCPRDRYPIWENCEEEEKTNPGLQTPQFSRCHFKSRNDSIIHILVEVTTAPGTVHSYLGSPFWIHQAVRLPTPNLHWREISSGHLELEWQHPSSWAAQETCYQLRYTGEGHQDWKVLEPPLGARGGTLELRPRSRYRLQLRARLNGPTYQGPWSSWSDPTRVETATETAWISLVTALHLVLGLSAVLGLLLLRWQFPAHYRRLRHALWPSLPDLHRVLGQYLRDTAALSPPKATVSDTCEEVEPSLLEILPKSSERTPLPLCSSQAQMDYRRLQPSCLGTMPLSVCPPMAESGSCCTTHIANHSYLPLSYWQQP
Test: Human c-Mpl-introduced Ba/F3 cell proliferative activity
Assay type: cell-based
Conditions: concentration showing 30% proliferation; 100% = positive control at 1 μM
Protocol: Evaluation of Human c-Mpl-Introduced Ba/F3 Cell Proliferative Activity
The human c-Mpl-introduced Ba/F3 cell proliferative activity was measured by the following method.
As a positive control, 1-(5-{[4-(4-chloro-2-thienyl)-5-{[(2R)-2-methylpyrrolidin-1-yl]methyl}-1,3-thiazol-2-yl]carbamoyl}-3-fluoropyridin-2-yl)piperidine-4-carboxylic acid hydrochloride, which is disclosed as Example 315 in Patent Document 1 and represented by the formula A1, was used. It is known that the compound has a good human c-Mpl-introduced Ba/F3 cell proliferative activity as disclosed in Table 1 of Patent Document 1.
a) Construction of Human c-Mpl Receptor Expression Vector
A human c-mpl receptor gene (GenBank Accession No. M90102.1) was introduced into an expression vector pEF-BOS (Nucleic Acids Res. 18, 5322, 1990).
b) Construction of Cell Stably Expressing Human c-Mpl Receptor
A human c-Mpl receptor expression vector was introduced into a Ba/F3 cell (RIKEN BRC: RCB0805). For the introduction, an electroporation method was used. pEF-BOS-c-mpl (10 μg), pSV2bsr (1 μg, Kaken Pharmaceutical Co., Ltd.) and 1×10^7 Ba/F3 cells were put into a cuvette having a gap width of 0.4 cm, and electroporated under the conditions of 1.5 kV (25 μF) by a Gene Pulser (registered trademark) (BioRad). The cells were cultured in an RPMI-1640 culture medium containing 0.5% WEHI conditioned media (BD Biosciences) and 10% fetal bovine serum for 3 days, and then cultured in an RPMI-1640 culture medium, to which 10 μg/mL blasticidin had been further added, for 30 days to acquire a drug-resistant clone.
c) Measurement of Cell Proliferative Activity
The cells obtained in b) above was cultured in an RPMI-1640 culture medium containing 0.5% WEHI conditioned media, 10% fetal bovine serum, and used. On the day before the experiment, test substances (final concentration of 100 nM to 10 μM) which had been dissolved in a culture medium for assay (RPMI-1640 culture medium containing 10% fetal bovine serum) were added to a 384-well plate (Lot No. 781185, Greiner Bio-One). The cells in the culture medium that had been replaced with a culture medium for assay were dispensed into a 384-well plate, to which the test substances had been added in advance, to 1×10^4 cells/well, and cultured at 37° C. and 5% CO2 overnight. On the experiment day, a solution of a Cell Counting Kit (Dojindo Laboratories) was added to each well of the 384-well plate and cultured at 37° C. and 5% CO2 for about 5 hours. Thereafter, the absorbance (absorption wavelength of 450 nm) of each well was measured using Safire^2™ (TECAN) and used as the index of the number of cells. Further, as a negative control, a well in which the test substance had been not added was prepared.
The absorbance of the well without the test substance was set to 0%, and the absorbance in the case where the positive control was added at a final concentration of 1 μM was set to 100%. From the absorbance in the case where the test substance had been added, a cell proliferation rate (%) was calculated. From the obtained results, the test substance concentration showing 30% proliferation was calculated as an EC30 value by a logistic regression method.

Test Example 2 EC30 [µM] | Structure (SMILES)
0.35 | C[C@@H]1CCCN1Cc1sc(NC(=O)c2cnc(N3CCC(C(=O)O)CC3)cn2)nc1-c1cc(Cl)cs1 [Example 4, 1-(5-{[4-(4-chloro-2-thienyl)-5-{[(2R)-2-methylpyrrolidin-1-yl]methyl}-1,3-thiazol-2-yl]carbamoyl}pyrazin-2-yl)piperidine-4-carboxylic acid dihydrochloride]
>10 | CC[C@@H]1CCCN1Cc1sc(NC(=O)c2cnc(N3CCC(C(=O)O)CC3)cn2)nc1-c1cc(F)cc(C(F)(F)F)c1 [Example 115]
>10 | CC[C@@H]1CCCN1Cc1sc(NC(=O)c2cnc(N3CCC(C(=O)O)CC3)cn2)nc1-c1ccc(OC)c(C(F)(F)F)c1 [Example 156]
